≈ marks a conversion by molar mass, not a printed value.
Assays:
[1] = Lipophilicity, logD of compound at pH 7.4; details: buffer
[2] = Protein binding in human plasma at 1 uM after 18 hrs by equilibrium dialysis; type: ADME, cell-free; details: read-out: PPB (converted)
[3] = Intrinsic clearance in rat hepatocytes assessed per million cells; type: ADME, cell-based, Hepatocyte; details: read-out: CLH
[4] = Intrinsic clearance in human microsomes; type: ADME, Microsome; details: read-out: CLH
[5] = (§1) Inhibition of replicating Mycobacterium tuberculosis H37Rv NDH assessed as cell growth inhibition after 7 days by MABA method; details: 168 h
[6] = Aqueous solubility of compound; type: physicochemical; details: buffer
[7] = Metabolic stability in rat liver microsomes assessed as half life for metabolic turnover at 0.1 to 10 uM preincubated for 60 mins in presence of NADPH measured up to 60 mins by mass spectroscopic analysis; type: ADME, microsome
[8] = Metabolic stability in mouse liver microsomes assessed as half life for metabolic turnover at 0.1 to 10 uM preincubated for 60 mins in presence of NADPH measured up to 60 mins by mass spectroscopic analysis; type: ADME, microsome
[9] = Metabolic stability in human liver microsomes assessed as half life for metabolic turnover at 0.1 to 10 uM preincubated for 60 mins in presence of NADPH measured up to 60 mins by mass spectroscopic analysis; type: ADME, microsome
[10] = system: Mycobacterium tuberculosis H37Rv; experiment: as §1
[11] = system: HepG2; experiment: Cytotoxicity against human HepG2 cells after 24 hrs in presence of glucose by MTT assay; type: cell-based; details: hepg2, 24 h

Structure (SMILES)	IC50 [5] [nM]	also measured
COc1ccc2c(=O)c(Cl)c(-c3ccc(N4CCCCC4)cc3)[nH]c2c1	2820	logD [1]: 3.6; fraction unbound at 18 h, 1 µM [2]: 0.012; hepatocyte CLint [3]: 48.9 µL/min/1e6 cells; microsomal CLint [4]: > 300 µL/min/mg; solubility [6]: 0.5 µM (≈ 0.184 µg/mL)
Cc1c(-c2ccc(N3CCN(Cc4ccccc4)CC3)cc2)[nH]c2ccccc2c1=O	5740	–
COc1cc(OC)c2c(=O)c(C)c(-c3ccc(N4CCCCC4)cc3)[nH]c2c1	> 10000	–
Cc1c(-c2ccc(N3CCC(F)CC3)cc2)[nH]c2cc(F)cc(F)c2c1=O	940 to 950	half-life at up to 10 µM [7]: 8.4 min; half-life at up to 10 µM [8]: 4.4 min; half-life at up to 10 µM [9]: 5.7 min; IC90 [10]: 1830 nM; Activity [11]: 102.2 µM
COc1ccc2c(=O)cc(-c3ccc(N4CCCCC4)cc3)[nH]c2c1	> 10000	–
Cc1c(-c2ccc(-n3cc(F)c(F)c3)cc2)[nH]c2cc(F)cc(F)c2c1=O	> 10000	half-life at up to 10 µM [7]: ≥ 60 min; half-life at up to 10 µM [8]: ≥ 60 min; half-life at up to 10 µM [9]: ≥ 60 min; IC90 [10]: > 10000 nM
Cc1c(-c2ccc(N3CCC4(CC3)CC4)cc2)[nH]c2cc(F)cc(F)c2c1=O	> 10000	–
COc1ccc2c(=O)c(Cl)c(-c3ccc(N4CCC(F)CC4)cc3)[nH]c2c1	> 10000	–
COc1ccc2c(=O)c(C)c(-c3ccc(N4CCN(Cc5ccccc5)CC4)cc3)[nH]c2c1	> 10000	–
Cc1c(-c2ccc(N3CCC[C@@H]3C(=O)NC3CCOCC3)cc2)[nH]c2cc(F)cc(F)c2c1=O	> 10000	–
COc1ccc2c(=O)c(C)c(-c3ccc(-n4cc(F)c(F)c4)cc3)[nH]c2c1	> 10000	–
Cc1c(-c2ccc(N3CCCCC3)cc2)[nH]c2cc(Cl)ccc2c1=O	> 10000	–
Cc1c(-c2ccc(N3CC[C@@H]3C(=O)N(C)C)cc2)[nH]c2cc(F)cc(F)c2c1=O	> 10000	–
Cc1c(-c2ccc(N3CC(F)(F)C3)cc2)[nH]c2cc(F)cc(F)c2c1=O	1530	–
Cc1c(-c2ccc(N3CCCCCC3)cc2)[nH]c2cc(F)cc(F)c2c1=O	490	logD [1]: 4.8; fraction unbound at 18 h, 1 µM [2]: 0.006; hepatocyte CLint [3]: 243 µL/min/1e6 cells; microsomal CLint [4]: > 300 µL/min/mg; solubility [6]: < 0.1 µM
Cc1c(-c2ccc(N3CCC(C)CC3)cc2)[nH]c2cc(F)cc(F)c2c1=O	610 to 611	half-life at up to 10 µM [7]: < 10 min; half-life at up to 10 µM [8]: < 10 min; half-life at up to 10 µM [9]: < 10 min; IC90 [10]: 1930 nM; Activity [11]: > 100 µM
Cc1c(-c2ccc(N3CCCCC3)cc2)[nH]c2cc(F)cc(F)c2c1=O	270	half-life at up to 10 µM [7]: 8.3 min; half-life at up to 10 µM [8]: 8.27 min; half-life at up to 10 µM [9]: 7.31 min; IC90 [10]: 780 nM; Activity [11]: > 100 µM
Cc1c(-c2cccc(N3CCCCC3)c2)[nH]c2cc(F)cc(F)c2c1=O	> 10000	–
COc1ccc2c(=O)c(C)c(-c3ccc(N4CCC(F)CC4)cc3)[nH]c2c1	1320	–
Cc1c(-c2ccc(N3CCC[C@@H](C)C3)cc2)[nH]c2cc(F)cc(F)c2c1=O	470	logD [1]: 4.7; fraction unbound at 18 h, 1 µM [2]: 0.005; hepatocyte CLint [3]: 183 µL/min/1e6 cells; microsomal CLint [4]: > 300 µL/min/mg; solubility [6]: < 0.5 µM
Cc1c(-c2ccc(N3CCC(F)CC3)cc2)[nH]c2ccccc2c1=O	> 10000	–

Structure (SMILES)	IC50 [5] [nM]	also measured
COc1cc2[nH]c(-c3ccc(N4CCCCC4)cc3)c(C)c(=O)c2cc1Cl	> 10000	–
Cc1c(-c2ccc(N3CCC[C@@H]3C(=O)N3CCOCC3)cc2)[nH]c2cc(F)cc(F)c2c1=O	> 10000	–
Cc1c(-c2ccc(-n3cccn3)cc2)[nH]c2cc(F)cc(F)c2c1=O	> 10000	–
Cc1c(-c2ccc(-n3cccc3)cc2)[nH]c2cccc(F)c2c1=O	710	–
Cc1c(-c2ccc(N3CCC(C(F)(F)F)CC3)cc2)[nH]c2cc(F)cc(F)c2c1=O	> 10000	–
Cc1c(-c2ccc(N3CCC(F)(F)CC3)cc2)[nH]c2cc(F)cc(F)c2c1=O	> 10000	–
Cc1c(-c2ccc(N3CCC[C@@H]3CO)cc2)[nH]c2cc(F)cc(F)c2c1=O	320	logD [1]: > 3.4; fraction unbound at 18 h, 1 µM [2]: 0.045; hepatocyte CLint [3]: 36.5 µL/min/1e6 cells; microsomal CLint [4]: > 300 µL/min/mg; solubility [6]: 4 µM (≈ 1.48 µg/mL)
COc1ccc2c(=O)cc(-c3ccc(N4CCC(F)CC4)cc3)[nH]c2c1	> 10000	–
Cc1c(-c2ccc(N3CC(C)(O)C3)cc2)[nH]c2cc(F)cc(F)c2c1=O	> 10000	–
COc1cc2[nH]c(-c3ccc(-n4cc(F)c(F)c4)cc3)c(C)c(=O)c2cc1Cl	> 10000	–
Cc1c(-c2ccc(N3CCC(Cc4ccccc4)CC3)cc2)[nH]c2ccccc2c1=O	> 10000	–
Cc1c(-c2ccc(N3CCC[C@H]3COCc3ccccc3)cc2)[nH]c2cc(F)cc(F)c2c1=O	960	–
O=c1c(Br)c(-c2ccc(N3CCCCC3)cc2)[nH]c2ccccc12	600	–
Cc1c(-c2ccc(N3CCN(Cc4ccccc4)CC3)cc2)[nH]c2ccc(F)cc2c1=O	> 10000	–
Cc1c(-c2ccc(N(C)C)cc2)[nH]c2cc(F)cc(F)c2c1=O	410	–
Cc1c(-c2ccc(N3CCCC(F)(F)C3)cc2)[nH]c2cc(F)cc(F)c2c1=O	360 to 361	half-life at up to 10 µM [7]: 13.7 min; half-life at up to 10 µM [8]: 16.2 min; half-life at up to 10 µM [9]: 17.4 min; IC90 [10]: 830 nM
COc1ccc2c(=O)c(C)c(-c3ccc(N4CCC(Cc5ccccc5)CC4)cc3)[nH]c2c1	> 10000	–
O=c1c(Cl)c(-c2ccc(N3CCCCC3)cc2)[nH]c2ccccc12	1560	–
Cc1c(-c2ccc(N3CCC[C@@H]3C(=O)N3CCC(F)CC3)cc2)[nH]c2cc(F)cc(F)c2c1=O	> 10000	–
Cc1c(-c2ccc(N3CCC[C@H]3CO)cc2)[nH]c2cc(F)cc(F)c2c1=O	1590	logD [1]: > 3.4; fraction unbound at 18 h, 1 µM [2]: 0.045; hepatocyte CLint [3]: 36.5 µL/min/1e6 cells; microsomal CLint [4]: > 300 µL/min/mg; solubility [6]: 4 µM (≈ 1.48 µg/mL)
COc1ccc2c(=O)c(C)c(-c3ccc(N4CCN(c5ccccc5)CC4)cc3)[nH]c2c1	> 10000	–

Structure (SMILES)	IC50 [5] [nM]	also measured
Cc1c(-c2ccc(N3CCC(C)(O)C3)cc2)[nH]c2cc(F)cc(F)c2c1=O (centres undefined)	> 10000	–
Cc1c(-c2ccc(N3CCN(C)CC3)cc2)[nH]c2cc(F)cc(F)c2c1=O	> 10000	–
O=c1c(Br)c(-c2ccc(N3CCC(F)CC3)cc2)[nH]c2ccccc12	> 10000	–
Cc1c(-c2ccc(N3CCCCC3)cc2)[nH]c2cc(F)ccc2c1=O	> 10000	–
Cc1c(-c2ccc(-n3ccc4ccccc43)cc2)[nH]c2cc(F)cc(F)c2c1=O	> 10000	–
O=c1cc(-c2ccc(N3CCCCC3)cc2)[nH]c2ccccc12	> 10000	–
Cc1c(-c2ccc(-n3cccc3)cc2F)[nH]c2cc(F)cc(F)c2c1=O	> 10000	–
Cc1c(-c2ccc(N3CCC(Cc4ccccc4)CC3)cc2)[nH]c2ccc(F)cc2c1=O	> 10000	–
Cc1c(-c2ccc(N3CCCC(C)C3)cc2)[nH]c2cc(F)cc(F)c2c1=O (centres undefined)	367 to 370	half-life at up to 10 µM [7]: 10.8 min; half-life at up to 10 µM [8]: 22.3 min; half-life at up to 10 µM [9]: 7.9 min; IC90 [10]: 630 nM; Activity [11]: > 100 µM
Cc1c(-c2ccc(N3CCC[C@@H]3C(=O)N(C)C)cc2)[nH]c2cc(F)cc(F)c2c1=O	> 10000	–
O=c1c(Cl)c(-c2ccc(N3CCC(F)CC3)cc2)[nH]c2ccccc12	> 10000	–
Cc1c(-c2ccc(N3CCCC(C)(O)C3)cc2)[nH]c2cc(F)cc(F)c2c1=O (centres undefined)	5010	–
COc1cc2[nH]c(-c3ccc(N4CCCCC4)cc3)c(C)c(=O)c2cc1OC	> 10000	–
Cc1c(-c2ccc(N3CCC[C@@H]3C(=O)NC(C)(C)C)cc2)[nH]c2cc(F)cc(F)c2c1=O	960	–
Cc1c(-c2ccc(N3CC[C@@H]3C(=O)NC(C)(C)C)cc2)[nH]c2cc(F)cc(F)c2c1=O	> 10000	–
Cc1c(-c2ccc(-n3cccc3)c(Cl)c2)[nH]c2cc(F)cc(F)c2c1=O	> 10000	–
Cc1c(-c2ccc(N3CCCCC3)cc2)[nH]c2ccc(F)cc2c1=O	1830	–
Cc1c(-c2ccc(-n3cccc3C#N)cc2)[nH]c2cc(F)cc(F)c2c1=O	> 10000	–
Cc1c(-c2ccc(NCc3ccccc3)cc2)[nH]c2cc(F)cc(F)c2c1=O	> 10000	–

Source: ChEMBL document CHEMBL4049411, “Rational Design, Synthesis, and Biological Evaluation of Heterocyclic Quinolones Targeting the Respiratory Chain of Mycobacterium tuberculosis” (J Med Chem, 2017)
